Experimental findings from patent publication EP4001279A1, “NOVEL SPIROPYRROLIDINE DERIVED ANTIVIRAL AGENTS” (Enanta Pharmaceuticals, Inc., priority 2020, dated 2022) are described below.

SMILES strings stand for the structures.

The subject of the test is 229E human corona virus (hCoV). Nature of the test: 229E live virus assay (CPE, ATPlite readout in MRC-5 cells). The class given is cell-based, hCoV-229E. The note with it: Human coronavirus 229E, MRC5, hCoV-229E live virus, MOI 0.05, ATPlite readout, run in duplicate.
What is called EC50 is the concentration needed to bring the measured effect to its halfway point. A lower EC50 goes with an effect from little substance. Compound `COc1cccc2[nH]c(C(=O)N[C@H](CC(C)C)C(=O)N3C[C@]4(C[C@H]3C#N)C(=O)Nc3ccccc34)cc12` [Example 12] returned an EC50 of 100 to 1000 nM.
For `[2H]C([2H])([2H])N(C(=O)c1cc2c(F)cc(F)cc2[nH]1)[C@@H](CC(C)(C)F)C(=O)N1C[C@]2(C[C@H]1C#N)C(=O)Nc1ccc(Cl)cc12` [Example 454, N-((S)-1-((3R,5'S)-5-chloro-5'-cyano-2-oxospiro[indoline-3,3'-pyrrolidin]-1'-yl)-4-fluoro-4-methyl-1-oxopentan-2-yl)-4,6-difluoro-N-(methyl-d3)-1H-indole-2-carboxamide] the value was less than 100 nM; for `CC(C)C[C@@H](C(=O)N1C[C@]2(C[C@H]1C#N)C(=O)Nc1ccccc12)N(C)C(=O)c1ccc2c(Br)cccc2n1` [Example 231], less than 100 nM; for `CCCC[C@H](NC(=O)[C@H](O)c1ccc(F)cc1)C(=O)N1C[C@]2(C[C@H]1C#N)C(=O)Nc1ccccc12` [Example 419], 100 to 1000 nM.
With `CCCOC[C@@H](C(=O)N1C[C@]2(C[C@H]1C#N)C(=O)Nc1ccccc12)N(C)C(=O)c1cc2c(F)cc(F)cc2[nH]1` [Example 413], the EC50 was less than 100 nM.
Then `CC(C)C[C@@H](C(=O)N1C[C@]2(C[C@H]1C#N)C(=O)Nc1ccccc12)N(C)C(=O)c1ccn(C)n1` [Example 204], with less than 100 nM; and `CC(C)C[C@@H](C(=O)N1C[C@]2(C[C@H]1C#N)C(=O)Nc1ccccc12)N(C)C(=O)c1ccc2ccccc2c1` [Example 219], with less than 100 nM; and `[2H]C([2H])([2H])N(C(=O)[C@@H](O)c1ccccc1)[C@@H](CC(C)(C)C)C(=O)N1C[C@]2(C[C@H]1C#N)C(=O)Nc1ccccc12` [Example 427], with less than 100 nM.
Consider `CC(C)C[C@@H](C(=O)N1C[C@]2(C[C@H]1C#N)C(=O)Nc1ccccc12)N(C)C(=O)c1cc2c(Cl)cccc2[nH]1` [Example 65], for which the 50% effective concentration (EC50) was less than 100 nM.
Compound `CC(C)C[C@@H](C(=O)N1C[C@]2(C[C@H]1C#N)C(=O)Nc1ccccc12)N(C)C(=O)c1cc2c(F)cccc2[nH]1` [Example 44] came in with an EC50 of less than 100 nM.
For `CC(C)C[C@@H](C(=O)N1C[C@]2(C[C@H]1C#N)C(=O)Nc1ccccc12)N(C)C(=O)c1ccc2ncc(F)cc2c1` [Example 235] the value was less than 100 nM.
Then `CC(C)C[C@@H](C(=O)N1C[C@]2(C[C@H]1C#N)C(=O)Nc1ccccc12)N(C)C(=O)c1ccc(OC(F)(F)F)c(F)c1` [Example 179], with less than 100 nM.
For `CC(C)C[C@@H](C(=O)N1C[C@]2(C[C@H]1C#N)C(=O)Nc1ccccc12)N(C)C(=O)c1nc2c(F)c(F)c(F)cc2[nH]1` [Example 273] the value was less than 100 nM; for `C[C@H](C(=O)N(C)[C@@H](CC(C)(C)C)C(=O)N1C[C@]2(C[C@H]1C#N)C(=O)Nc1ccccc12)c1cnn(C)c1` [Example 373], 100 to 1000 nM; for `N#C[C@@H]1C[C@@]2(CN1C(=O)[C@H](Cc1ccc(F)cc1)NC(=O)c1cc3c(F)cc(F)cc3[nH]1)C(=O)Nc1ccc(Cl)cc12` [Example 452], 100 to 1000 nM.
For the compound `CN(C(=O)c1cc2c(F)cc(F)cc2[nH]1)[C@@H](CC1CC1)C(=O)N1C[C@]2(C[C@H]1C#N)C(=O)Nc1ccccc12` [Example 115], the EC50 is less than 100 nM.
Then `CC(C)C[C@@H](C(=O)N1C[C@]2(C[C@H]1C#N)C(=O)Nc1ccccc12)N(C)C(=O)c1cccc(-c2ccc(C#N)cc2)c1` [Example 265], with 100 to 1000 nM.
For `CN(C(=O)c1cc2c(F)c(F)ccc2[nH]1)[C@@H](CC(C)(C)C)C(=O)N1C[C@]2(C[C@H]1C#N)C(=O)Nc1ccccc12` [Example 86] the value was less than 100 nM; for `CC(C)C[C@@H](C(=O)N1C[C@]2(C[C@H]1C#N)C(=O)Nc1ccccc12)N(C)C(=O)c1ccc(Cl)c(F)c1F` [Example 175], less than 100 nM; for `CC(C)(C)C[C@H](NC(=O)OCc1ccccc1)C(=O)N1C[C@]2(C[C@H]1C#N)C(=O)Nc1ccccc12` [Example 5], 100 to 1000 nM.
Then `[2H]C([2H])([2H])N(C(=O)c1ccc2ncc(C(F)(F)F)cc2c1)[C@@H](CC(C)(C)C)C(=O)N1C[C@]2(C[C@H]1C#N)C(=O)Nc1ccccc12` [Example 381], with less than 100 nM; and `CN(C(=O)c1cc2c(F)cc(F)cc2[nH]1)[C@@H](CC(C)(C)O)C(=O)N1C[C@]2(C[C@H]1C#N)C(=O)Nc1ccccc12` [Example 443], with 100 to 1000 nM; and `CN(C(=O)Cc1cccc(C(F)(F)F)n1)[C@@H](CC(C)(C)F)C(=O)N1C[C@]2(C[C@H]1C#N)C(=O)Nc1ccc(Cl)cc12` [Example 485], with 100 to 1000 nM.
With `CC(C)C[C@@H](C(=O)N1C[C@]2(C[C@H]1C#N)C(=O)Nc1ccccc12)N(C)C(=O)c1c(Cl)cc(F)cc1Cl` [Example 186], the EC50 was less than 100 nM.
Take `CC(C)C[C@@H](C(=O)N1C[C@]2(C[C@H]1C#N)C(=O)Nc1ccccc12)N(C)C(=O)c1ccc2c(c1)OC(F)(F)O2` [Example 190]: the EC50 was less than 100 nM.
Then `CN(C(=O)c1cn(C(C)(C)C)nn1)[C@@H](CC1CC1)C(=O)N1C[C@]2(C[C@H]1C#N)C(=O)Nc1ccccc12` [Example 402], with less than 100 nM.
For `CC(C)CC[C@@H](C(=O)N1C[C@]2(C[C@H]1C#N)C(=O)Nc1ccccc12)N(C)C(=O)OCc1ccccc1` [Example 100] the value was 100 to 1000 nM; for `CCCOC[C@H](NC(=O)c1cc2c(OC)cccc2[nH]1)C(=O)N1C[C@]2(C[C@H]1C#N)C(=O)Nc1ccccc12` [Example 126], less than 100 nM.
For `COc1ccc2[nH]c(C(=O)N(C)[C@@H](CC(C)C)C(=O)N3C[C@]4(C[C@H]3C#N)C(=O)Nc3ccccc34)nc2c1` [Example 249] the value was less than 100 nM.
`[2H]C([2H])([2H])N(C(=O)[C@H](O)c1ccccc1)[C@@H](CC(C)(C)C)C(=O)N1C[C@]2(C[C@H]1C#N)C(=O)Nc1ccccc12` [Example 428] yielded an EC50 of less than 100 nM.
Compound `CC(C)(C)C[C@H](NC(=O)c1cnn(-c2ccc(C(F)(F)F)cc2)c1)C(=O)N1C[C@]2(C[C@H]1C#N)C(=O)Nc1ccccc12` [Example 145] yielded an EC50 of less than 100 nM.
For `CC(C)C[C@@H](C(=O)N1C[C@]2(C[C@H]1C#N)C(=O)Nc1ccccc12)N(C)C(=O)c1cnc2ccccc2c1O` [Example 260] the value was less than 100 nM.
Then `CN(C(=O)c1cc2c(OC3CC3)cccc2[nH]1)[C@@H](CC(C)(C)C)C(=O)N1C[C@]2(C[C@H]1C#N)C(=O)Nc1ccccc12` [Example 375], with less than 100 nM; and `COc1cccc2[nH]c(C(=O)N[C@@H](CC3CCC3)C(=O)N3C[C@]4(C[C@H]3C#N)C(=O)Nc3ccccc34)cc12` [Example 17], with less than 100 nM; and `[2H]C([2H])([2H])N(C(=O)c1cc(OC(F)(F)F)c2ncccc2c1)[C@@H](CC(C)(C)C)C(=O)N1C[C@]2(C[C@H]1C#N)C(=O)Nc1ccccc12` [Example 382], with less than 100 nM.
Then `COc1cccc2[nH]c(C(=O)N(C)[C@@H](CC(C)(C)C)C(=O)N3C[C@]4(C[C@H]3C#N)C(=O)Nc3ccccc34)cc12` [Example 85], with less than 100 nM.
The compound `Cc1cc(C)c2ccc(C(=O)N(C)[C@@H](CC(C)C)C(=O)N3C[C@]4(C[C@H]3C#N)C(=O)Nc3ccccc34)nc2c1O` [Example 259] came in with an EC50 of less than 100 nM.
Then `CC(C)C[C@@H](C(=O)N1C[C@]2(C[C@H]1C#N)C(=O)Nc1ccccc12)N(C)C(=O)c1cccc(Cl)c1` [Example 167], with less than 100 nM; and `CC(C)C[C@@H](C(=O)N1C[C@]2(C[C@H]1C#N)C(=O)Nc1ccccc12)N(C)C(=O)c1ccc(Cl)c(C(F)(F)F)c1` [Example 174], with less than 100 nM; and `CC(C)C[C@@H](C(=O)N1C[C@]2(C[C@H]1C#N)C(=O)Nc1ccccc12)N(C)C(=O)c1cc(OC2CC2)n2nc(C3CC3)c(C(=O)C(F)(F)F)c2c1` [Example 313], with greater than 1000 nM.
Then `CC(C)(C)C[C@H](NC(=O)Nc1ccc2ccccc2c1)C(=O)N1C[C@]2(C[C@H]1C#N)C(=O)Nc1ccccc12` [Example 439], with less than 100 nM; and `CC(C)C[C@@H](C(=O)N1C[C@]2(C[C@H]1C#N)C(=O)Nc1ccccc12)N(C)C(=O)c1cc2ccc(F)cc2[nH]1` [Example 50], with less than 100 nM; and `CN(C(=O)c1cc2c(F)cc(F)cc2[nH]1)[C@@H](CC(C)(C)F)C(=O)N1C[C@]2(C[C@H]1C#N)C(=O)Nc1ccc(Cl)cc12` [Example 455], with less than 100 nM.
For `Cc1cc2cc(C(=O)N(C)[C@@H](CC(C)C)C(=O)N3C[C@]4(C[C@H]3C#N)C(=O)Nc3ccccc34)cc(OC3CC3)c2nc1C` [Example 323] the value was 100 to 1000 nM; for `CC(C)C[C@@H](C(=O)N1C[C@]2(C[C@H]1C#N)C(=O)Nc1ccc(N=[N+]=[N-])cc12)N(C)C(=O)c1cc2c(F)cc(F)cc2[nH]1` [Example 503, N-((S)-1-((3R,5'S)-5-azido-5'-cyano-2-oxospiro[indoline-3,3'-pyrrolidin]-1'-yl)-4-methyl-1-oxopentan-2-yl)-4,6-difluoro-N-methyl-1H-indole-2-carboxamide], less than 100 nM; for `COc1cc(C(=O)N(C)[C@@H](CC(C)C)C(=O)N2C[C@]3(C[C@H]2C#N)C(=O)Nc2ccccc23)cc2cn(C3CCC3)nc12` [Example 320], 100 to 1000 nM.
Turning to `CC(C)C[C@@H](C(=O)N1C[C@]2(C[C@H]1C(=O)CO)C(=O)Nc1ccccc12)N(C)C(=O)c1cc2c(F)cc(F)c(F)c2[nH]1` [Example 158], the concentration for a half-maximal effect (EC50) was in the range of 100 to 1000 nM.
Regarding `CC(C)C[C@@H](C(=O)N1C[C@]2(C[C@H]1C#N)C(=O)Nc1ccccc12)N(C)C(=O)c1cncc(F)c1` [Example 196], the EC50 was less than 100 nM.
In the case of `CC(C)C[C@@H](C(=O)N1C[C@]2(C[C@H]1C#N)C(=O)Nc1ccccc12)N(C)C(=O)c1cc2c(F)cc(F)cc2[nH]1` [Example 46], the EC50 is less than 100 nM.
In the case of `COc1cc(C(=O)N(C)[C@@H](CC(C)C)C(=O)N2C[C@]3(C[C@H]2C#N)C(=O)Nc2ccccc23)cc2cn(C3(C)CC3)nc12` [Example 319], the EC50 is less than 100 nM.
For the compound `CC(C)(C)C[C@H](NC(=O)NC1CCCCC1)C(=O)N1C[C@]2(C[C@H]1C#N)C(=O)Nc1ccccc12` [Example 440], the EC50 was less than 100 nM.
The compound `CC(C)C[C@@H](C(=O)N1C[C@]2(C[C@H]1C#N)C(=O)Nc1ccccc12)N(C)C(=O)c1ccc2ncc(C(F)(F)F)cc2c1` [Example 237] registered an EC50 of less than 100 nM.
